# Results taken from PubChem BioAssay AID977614 (Broad Institute, 2014).
# Active and inactive are the calls of the source.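 How the source made its calls: active means parasite count per well reduced by over 3 SD from the mean, with host cell number above 80% of untreated; inactive means the rest.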
# Tested on: L. donovani amastigotes in THP-1 macrophages, DAPI imaging, 72 h
# Assay: antileishmanial activity in infected macrophages – imaging, THP-1 host macrophages, single concentration (AID 977614);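 further: signal is the parasite per host cell ratio from DAPI stained kinetoplasts and nuclei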
row,Compound,AC50
1,C[C@H]1CN([C@@H](C)CO)C(=O)CCCn2nncc2CO[C@H]1CN(C)Cc1ccc2cccnc2c1,> 10 µM (inactive)
2,C/C=C/c1ccc([C@H]2[C@@H](CO)N(C(C)=O)[C@@H]2CNC(=O)c2ccccc2)cc1,> 10 µM (inactive)
3,O=C(NC[C@H]1[C@H](c2ccccc2)[C@H](CO)N1Cc1cccnc1)c1ccccn1,> 10 µM (inactive)
4,C[C@@H]1CN([C@@H](C)CO)C(=O)CCCn2cc(nn2)CO[C@@H]1CN(C)C(=O)CCC(F)(F)F,> 10 µM (inactive)
5,COc1ccccc1NC(=O)N1C[C@@H]2[C@H](c3ccccc31)[C@H](CO)N2Cc1ccc2c(c1)OCO2,> 10 µM (inactive)
6,Cc1ccc(S(=O)(=O)N2C[C@@H]3[C@H](c4ccccc42)[C@H](CO)N3Cc2cccnc2)cc1,> 10 µM (inactive)
7,COCC(=O)N1[C@H](CO)[C@@H]2c3ccccc3N(C)C[C@@H]21,> 10 µM (inactive)
8,C[C@@H]1CN([C@@H](C)CO)C(=O)CCCn2nncc2CO[C@@H]1CN(C)Cc1ccc2c(c1)OCCN2C,> 10 µM (inactive)
9,O=C(NC[C@@H]1[C@H](c2ccccc2)[C@@H](CO)N1C(=O)C1CCC1)NC1CCCC1,> 10 µM (inactive)
10,O=C(NC[C@H]1[C@@H](c2ccccc2)[C@H](CO)N1C(=O)C1CCC1)NC1CCCC1,> 10 µM (inactive)
11,O=C(CN1CCOCC1)N1[C@@H]2CNc3ccccc3[C@@H]2[C@@H]1CO,> 10 µM (inactive)
12,C/C=C/c1ccc([C@H]2[C@@H](CO)N(S(=O)(=O)CC)[C@@H]2CN(C)C(=O)CC)cc1,> 10 µM (inactive)
13,COc1ccc(C(=O)N2C[C@H]3[C@@H](c4ccccc42)[C@H](CO)N3C(=O)Cc2ccccn2)cc1,> 10 µM (inactive)
14,COCC(=O)N1[C@@H](CO)[C@@H]2c3ccccc3N(C(=O)Nc3ccccc3Cl)C[C@@H]21,> 10 µM (inactive)
15,CCC(=O)N1[C@@H](CO)[C@@H]2c3ccccc3N(S(=O)(=O)c3ccc(F)cc3)C[C@@H]21,> 10 µM (inactive)
16,C[C@@H]1CN([C@@H](C)CO)C(=O)CCCn2cc(nn2)CO[C@@H]1CN(C)Cc1ccccc1,> 10 µM (inactive)
17,C[C@@H]1CN([C@H](C)CO)C(=O)CCCn2cc(nn2)CO[C@@H]1CN(C)Cc1ccccc1,> 10 µM (inactive)
18,C[C@H](CO)N1C[C@H](C)[C@H](CN(C)C(=O)CCC(F)(F)F)OCc2cnnn2CCCC1=O,> 10 µM (inactive)
19,CCCNC(=O)N(C)C[C@@H]1[C@@H](c2ccccc2)[C@H](CO)N1C(=O)c1ccccc1,> 10 µM (inactive)
20,COc1ccc(C(=O)N2C[C@@H]3[C@H](c4ccccc42)[C@@H](CO)N3C(=O)Cc2ccccn2)cc1,> 10 µM (inactive)
21,CCCNC(=O)N1[C@H](CNC(=O)c2cccc(F)c2)[C@H](c2ccccc2)[C@@H]1CO,> 10 µM (inactive)
22,COCC(=O)N1C[C@H]2[C@@H](c3ccccc31)[C@@H](CO)N2Cc1cc(F)ccc1F,> 10 µM (inactive)
23,C[C@H]1CN([C@@H](C)CO)C(=O)CCCn2cc(nn2)CO[C@@H]1CN(C)C(=O)CCC(F)(F)F,> 10 µM (inactive)
24,CCN(C[C@H]1N[C@@H](CO)[C@@H]1c1ccccc1)C(=O)c1ccncc1,> 10 µM (inactive)
25,O=C(C1CC1)N1C[C@@H]2[C@H](c3ccccc31)[C@H](CO)N2C(=O)c1ccccc1,> 10 µM (inactive)
26,CN1C[C@H]2[C@@H](c3ccccc31)[C@H](CO)N2C(=O)C1CCOCC1,> 10 µM (inactive)
27,CN(C)CC(=O)N1[C@@H](CO)[C@@H]2c3ccccc3N(C(=O)Cc3ccccc3)C[C@@H]21,> 10 µM (inactive)

row,Compound,AC50
1,O=C(Cc1ccccn1)N1[C@H](CO)[C@H]2c3ccccc3NC[C@H]21,> 10 µM (inactive)
2,C[C@@H]1CN([C@H](C)CO)C(=O)CCCn2nncc2CO[C@@H]1CN(C)C(=O)Nc1ccnc(N2CCOCC2)c1,> 10 µM (inactive)
3,C/C=C/c1ccc([C@H]2[C@@H](CN(C)C(C)=O)N(C(=O)NC(C)C)[C@H]2CO)cc1,> 10 µM (inactive)
4,C[C@H]1CN([C@@H](C)CO)C(=O)CCCn2cc(nn2)CO[C@H]1CN(C)C(=O)Nc1cccc(C(F)(F)F)c1,> 10 µM (inactive)
5,O=C(CC(F)(F)F)N1C[C@@H]2[C@H](c3ccccc31)[C@@H](CO)N2C(=O)c1ccncc1,> 10 µM (inactive)
6,O=S(=O)(NC[C@H]1[C@@H](c2ccccc2)[C@@H](CO)N1CC1CC1)c1ccccc1,> 10 µM (inactive)
7,COc1ccccc1-c1ccc([C@H]2[C@@H](CO)N[C@@H]2CNC(=O)C2CC2)cc1,> 10 µM (inactive)
8,C[C@H](CO)N1C[C@H](C)[C@H](CN(C)C(=O)c2ccc(N3CCN(C)CC3)cc2)OCc2cn(nn2)CCCC1=O,> 10 µM (inactive)
9,COc1ccc(-c2ccc([C@@H]3[C@H](CN(C)S(C)(=O)=O)N[C@@H]3CO)cc2)cc1,> 10 µM (inactive)
10,C[C@H]1CN([C@@H](C)CO)C(=O)CCCn2nncc2CO[C@@H]1CN(C)Cc1ccc2c(c1)OCCN2C,> 10 µM (inactive)
11,C[C@H]1CN([C@@H](C)CO)C(=O)CCCn2cc(nn2)CO[C@H]1CN(C)C(=O)Nc1cccc2ccccc12,> 10 µM (inactive)
12,C/C=C/c1ccc([C@H]2[C@H](CO)N[C@H]2CN(CC(C)C)C(=O)c2ccccn2)cc1,> 10 µM (inactive)
13,COCCN(C[C@@H]1[C@@H](c2ccccc2)[C@H](CO)N1C(=O)C1CC1)C(C)=O,> 10 µM (inactive)
14,COc1ccc(NC(=O)N(C)C[C@@H]2OCc3cnnn3CCCC(=O)N([C@H](C)CO)C[C@@H]2C)c(OC)c1,> 10 µM (inactive)
15,CC(=O)N(Cc1cccc(F)c1)C[C@H]1[C@@H](c2ccccc2)[C@@H](CO)N1C(C)=O,> 10 µM (inactive)
16,C/C=C/c1ccc([C@H]2[C@@H](CO)N(S(=O)(=O)CC)[C@H]2CN(C)C(=O)CC)cc1,> 10 µM (inactive)
17,O=C(CC(F)(F)F)N1C[C@@H]2[C@H](c3ccccc31)[C@@H](CO)N2CC1CCOCC1,> 10 µM (inactive)
18,COCC(=O)N1[C@@H]2CNc3ccccc3[C@@H]2[C@@H]1CO,> 10 µM (inactive)
19,C[C@@H]1CN([C@H](C)CO)C(=O)CCCn2nncc2CO[C@@H]1CN(C)C(=O)c1ccc2ccn(C)c2c1,> 10 µM (inactive)
20,C[C@H]1CN([C@@H](C)CO)C(=O)CCCn2cc(nn2)CO[C@@H]1CN(C)C(=O)c1ccc(N2CCN(C)CC2)cc1,> 10 µM (inactive)
21,O=S(=O)(NC[C@H]1[C@H](c2ccccc2)[C@@H](CO)N1CC1CC1)c1ccccc1,> 10 µM (inactive)
22,C[C@H]1CN([C@@H](C)CO)C(=O)CCCn2nncc2CO[C@H]1CN(C)Cc1ccc2c(c1)OCCN2C,> 10 µM (inactive)
23,COc1ccc(NC(=O)N(C)C[C@@H]2OCc3cnnn3CCCC(=O)N([C@@H](C)CO)C[C@H]2C)c(OC)c1,> 10 µM (inactive)
24,C[C@@H]1CN([C@@H](C)CO)C(=O)CCCn2nncc2CO[C@H]1CN(C)C(=O)Nc1ccccc1C(F)(F)F,> 10 µM (inactive)
25,O=C(Nc1cccc(Cl)c1)N1C[C@@H]2[C@H](c3ccccc31)[C@H](CO)N2Cc1cccnc1,> 10 µM (inactive)
26,Cc1cccc(S(=O)(=O)N2C[C@H]3[C@@H](c4ccccc42)[C@H](CO)N3Cc2ccc3c(c2)OCO3)c1,> 10 µM (inactive)
27,COc1ccccc1NC(=O)N1C[C@H]2[C@@H](c3ccccc31)[C@H](CO)N2Cc1ccc2c(c1)OCO2,> 10 µM (inactive)
